Patent US5220001A, “Anthracycline glycoside derivatives” (Zaidan Hojim Biseibutsu Dong-A Pharm Co., priority 1989, dated 1993)
Structures can show the parent of a compound that is named as a salt. Where two headings read alike, the source gives them in different places.

Key:
[1] = tested on: L1210 murine leukemia cells; test: In vitro growth inhibition activity on L1210 murine leukemia cells (tetrazolium-based MTT colorimetric assay); type: cell-based; conditions: Mus musculus
Procedure: In vitro growth inhibition activity of the compounds of present invention on L1210 murine leukemia cells was assessed by tetrazolium-based colorimetric assay described in Cancer Research Vol. 47, pp. 936-942, February 1987 with some modifications.
L1210 murine leukemia cells in exponential phase were plated at the density of 1×10^5 cells per well in 96-well microliter plates. The cell culture medium was RPMI 1640 (Roswell Park Memorial Institutes 1640) medium supplemented with 10% heat inactivated fetal bovine serum (FBS), 2mM L-glutamine, penicillin G sodium (100 units per ml of medium), and steptomycin sulfate (1 mg per ml of medium). The anthracycline compounds of present invention and doxorubicin hydrochloride were added to give final concentrations from 1 ng per ml to 300 ng per ml, while the control contained no drug.
The cells were incubated for 72 hours at 37.C. in an atmosphere of 10% CO2 and 90% air. At the end of drug exposure, 50 μl MTT(3-(4,5-dimethylthiazol-2-yl)-2,5-diphenyltetrazolium bromide) solution (2 mg per ml in phosphate-buffered saline) was added to each well and cultures were incubated at 37° C. for 4 hours in Co2 incubator. The MTT is reduced to water insoluble MTT formazan(1-(4,5-dimethylthiazol-2-yl)-3,5-diphenylformazan) by mitochondrial succinate dehydrogenase only in living cells. At the end of incubation, 200 μl of supernatant was removed and the MTT formazan crystal was dissolved by adding 200 μl dimethylsulfoxide with mixing them.
The plates were then read immediately at 540 nm on a scanning multiwell spectrophotometer (enzyme-linked immunosorbent assay reader; Biotech Instruments Inc., Burlington, VT). The absorbance value corrected against uninoculated blank values. The absorbance values are directly proportional to the cell numbers in living state. The IC 50 defined a 50% reduction of absorbance against untreated control were calculated from dose-response curve and are shown in Table 2.

L1210 murine leukemia = test: In vivo antitumor activity on DCF1 mice bearing L1210 murine leukemia; conditions: for T/C (%): i.p. days 1, 5, 9, mean survival time vs control, 60-day observation
Procedure: The in vivo antitumor activity of the compounds of present invention was studied on DCF1 mice bearing L1210 murine leukemia. Healthy female DCF1 mice were inoculated by intraperitoneal injection with 1×10^5 L1210 leukemia cells per animal. The inoculated mice were then treated intraperitoneally on the days 1, 5, 9 beginning on day 1, 24 hours after inoculation of the leukemia cells with various doses of test compounds. Doxorubicin hydrochloride was administered for comparison. All test compounds and doxorubicin hydrochloride were dissolved in filtered (0.22 μm) distilled water. […] The results are shown in Table 1 where T/C(%) values are determined by dividing the mean survival time of the treated mice by that of the control mice, the quotient so obtained being multiplied by 100. The survival time of the mice which survived more than 60 days after tumor inoculation was scored as 60 days. An increase on the T/C(%) indicates an increase in the antitumor activity of the compound.

[2] = L1210 cells, 72 hours, MTT, 50% reduction of absorbance against untreated control, read-out: IC50

| Compound | IC50 [1, 2] | T/C (%) (L1210 murine leukemia; dose 0.125 mg/kg) | T/C (%) (L1210 murine leukemia; dose 0.250 mg/kg) | T/C (%) (L1210 murine leukemia; dose 0.500 mg/kg) | T/C (%) (L1210 murine leukemia; dose 1.000 mg/kg) | T/C (%) (L1210 murine leukemia; dose 2.000 mg/kg) | T/C (%) (L1210 murine leukemia; dose 4.000 mg/kg) | T/C (%) (L1210 murine leukemia; dose 8.000 mg/kg) | T/C (%) (L1210 murine leukemia; dose 16.000 mg/kg) | T/C (%) (L1210 murine leukemia; dose 32.000 mg/kg) | IC50 ([1]; L1210, 72 h) | toxicity (decrease in T/C(%) at high dose) (L1210 murine leukemia; 16 mg/kg compared with 8 mg/kg) | cure of tumored mice (L1210 murine leukemia; at 32 mg/kg, 16 mg/kg and 8 mg/kg i.p.) |
| --- | --- | --- | --- | --- | --- | --- | --- | --- | --- | --- | --- | --- | --- |
| COc1cccc2c1C(=O)c1c(O)c3c(c(O)c1C2=O)CC(O)(C(=O)COC(=O)CCN)CC3OC1OC(C)C(O)C(O)C1F [Example 5, 7-0-(2,6-dideoxy-2-fluoro-α-L-talopyranosyl)adriamycinone 14-0-β-alaninate HCl salt] | 0.0101 µg/mL | 140% | 162% | 189% | 248% | 361% | 333% | 500% | 636% | 542% | – | – | – |
| COc1cccc2c1C(=O)c1c(O)c3c(c(O)c1C2=O)CC(O)(C(=O)COC(=O)CCCCCN)CC3OC1OC(C)C(O)C(O)C1F [Example 7, 7-0-(2,6-dideoxy-2 fluoro-α-L-talopyranosyl)adriamycinone 14-0-(6-aminohexanoate) HCl salt] | – | 111% | 122% | 168% | 242% | 329% | 348% | 367% | 441% | 663% | 0.0745 µg/mL | – | – |
| COc1cccc2c1C(=O)c1c(O)c3c(c(O)c1C2=O)CC(O)(C(=O)COC(=O)C(N)C(C)C)CC3OC1OC(C)C(O)C(O)C1F [Example 11, 7-0-(2,6-dideoxy-2-fluoro-α-L-talopyranosyl)adriamycinone 14-0-L-valinate HCl salt] | 0.0155 µg/mL | 150% | 168% | 226% | 298% | 492% | 559% | 586% | 727% | 252% | – | – | – |
| COc1cccc2c1C(=O)c1c(O)c3c(c(O)c1C2=O)C[C@@](O)(C(=O)CO)C[C@@H]3O[C@H]1C[C@H](N)[C@H](O)[C@H](C)O1 [Doxorubicin hydrochloride, reference compound] | – | 141% | 170% | 218% | 242% | 242% | 469% | 303% | 109% | – | 0.0373 µg/mL | significant decrease in T/C(%) | – |
| COc1cccc2c1C(=O)c1c(O)c3c(c(O)c1C2=O)CC(O)(C(=O)COC(=O)CN)CC3OC1OC(C)C(O)C(O)C1F [Example 3, 7-0-(2,6-dideoxy-2-fluoro-α-L-talopyranosyl)adriamycinone 14-0-glycinate HCl salt] | 0.0134 µg/mL | 186% | 238% | 328% | 230% | 255% | 279% | 727% | 727% | 727% | – | – | cured all tumored mice |
| COc1cccc2c1C(=O)c1c(O)c3c(c(O)c1C2=O)CC(O)(C(=O)COC(=O)C1CCCN1)CC3OC1OC(C)C(O)C(O)C1F [Example 13, 7-0-(2,6-dideoxy-2-fluoro-α-L-talopyranosyl)adriamycinone 14-0-L-prolinate HCl salt] | 0.0163 µg/mL | 140% | 159% | 213% | 313% | 367% | 283% | 427% | 635% | 525% | – | – | – |
| COc1cccc2c1C(=O)c1c(O)c3c(c(O)c1C2=O)CC(O)(C(=O)COC(=O)C(C)N)CC3OC1OC(C)C(O)C(O)C1F [Example 9, 7-0-(2,6-dideoxy-2-fluoro-α-L-talopyranosyl)adriamycinone 14-0-L-alaninate HCl salt] | 0.0143 µg/mL | 171% | 190% | 244% | 287% | 356% | 468% | 488% | 660% | 727% | – | – | – |
